According to patent EP2692352A1, “HOT FLASH SUPPRESSANT” (Shiseido Company, Ltd., priority 2011, dated 2014):

How the values were obtained:
menopausal mice = details: apelin highly expressed in epidermis (K14 promoter transgene, OVXTG) vs OVXWT; nifedipine 50 µg/kg i.p.; 10, 30 and 45 minutes; FIG. 1
Procedure: Ovariectomy was performed on C57/BL6 mice highly expressing apelin in the epidermis under the control of a K14 promoter (herein after referred to as apelin-highly expressed mice, apelin TG or TG) and the corresponding wild-type mice (C57/BL6) (n=5, 8 to 10 week-old) to obtain menopausal mice highly expressing apelin and menopausal wild type mice. Furthermore, wild type mice that underwent sham surgery were used as a control. Four weeks later, nifedipine (50 µg/kg) was administered intraperitoneally as a vasodilator, and changes in tail temperature were analyzed using thermography (Thermo Tracer TH9011MR, NEC/Avio Infrared Technologies Co., Ltd.) at 10, 30 and 45 minutes after administration.

Apelin receptor APJ = assay: cAMP luciferase assay in APJ-expressing NIH3T3 cells (screening system for apelin-like agents); assay type: cell-based; details: FIG. 3
Procedure: A cAMP luciferase reporter vector was transfected into a stable cell line, which was obtained by highly expressing Apelin receptor APJ in NIH3T3 cells, and then subjecting to selection with hygromycin (provided by Professor Nobuyuki Takakura of the Research Institute for Microbial Diseases of Osaka University), and these were used in the cAMP luciferase assay described below. Culturing was carried out in DMEM medium containing 10% FBS containing 200 µg/ml of hygromycin (Invitrogen). On the day before the assay, 2.0 x 10^5 cells were seeded into each well of a 96-well plate followed by culturing in DMEM medium containing 10% FBS and 200 µg/ml of hygromycin.
After culturing overnight, the medium was removed by aspiration and replaced with 100 µl of additive-free DMEM per well. Three hours later, Glosensor™ cAMP Reagent (Promega) was added at 4 µl per well followed by equilibrating for 2 hours at room temperature under light blocking. Subsequently, apelin 13 (Peptide Institute) was diluted with additive-free DMEM medium to a concentration of 0.4 µg/ml and this was added at 50 µl per well (final concentration: 0.1 µg/ml) followed by incubating for 5 minutes at room temperature. […] Subsequently, luminescence was measured with the GloMax™ 96 Microplate Luminometer (Promega). […]

apelin was tested, and the “transient rises in body temperature (tail temperature) caused by hot flashes” value (menopausal mice) was “able to suppress or improve transient rises in body temperature caused by hot flashes in a short period of time”, the cAMP concentration (Apelin receptor APJ; apelin 13 final concentration 0.1 µg/ml, forskolin final 10 µM, versus forskolin-only control) was “decreased” and the “decreases in cAMP concentration in the presence of apelin neutralizing antibody” value (Apelin receptor APJ; apelin final 0.5 µg/ml together with neutralizing antibody 4G5 at 1.5, 5, 15 and 50 µg/ml) was “suppressed”.
